The values below come from patent US11261186B2, “Biaryl derivative as GPR120 agonist” (LG CHEM, LTD., priority 2014, dated 2022).

The test concerns the target T1, hGPR120 (Homo sapiens, UniProt Q5NUL3).
T1 construct: expressed in transfected cells; host or cells: CHO-K1
T1 sequence (Q5NUL3 1-361): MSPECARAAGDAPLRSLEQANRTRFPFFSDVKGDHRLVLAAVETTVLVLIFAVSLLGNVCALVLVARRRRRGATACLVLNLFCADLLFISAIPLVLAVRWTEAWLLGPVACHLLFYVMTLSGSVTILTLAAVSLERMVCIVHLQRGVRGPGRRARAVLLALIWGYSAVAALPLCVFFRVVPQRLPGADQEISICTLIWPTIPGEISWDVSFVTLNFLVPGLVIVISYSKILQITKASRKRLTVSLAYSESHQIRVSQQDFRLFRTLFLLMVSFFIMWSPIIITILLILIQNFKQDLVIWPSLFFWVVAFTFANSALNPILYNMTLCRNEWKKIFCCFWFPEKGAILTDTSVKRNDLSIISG
Kind of test: Measurement of Activity of GPR120 Agonist (Cell-Based Assay), Calcium 5 dye fluorescence. The following applies: CHO-K1 cells expressing Ga16 and hGPR120. The essentials: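 CHO-K1 cells co-expressing Gα16 and hGPR120 were seeded, cultured 18 h at 37 °C, then loaded 1 h with Calcium 5 dye. Serially diluted agonists (final 0.5% DMSO) were added and fluorescence read at Ex 485/Em 525 nm, expressed as percent relative to 1% DMSO-only wells.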

The structures appear in SMILES notation.

As for `O=C(O)CC1CCN(c2c(F)cc(-c3nc(OC4CCC4)cs3)cc2F)CC1` [Example 379, {1-[4-(4-cyclobutoxy-thiazol-2-yl)-2,6-difluoro-phenyl]-piperidin-4-yl}acetic acid], the EC50 was less than 200 nM.

With `CC1(C)Cc2cc(Cl)cc(-c3cc(F)c(SCCCC(=O)O)c(F)c3)c2O1` [Example 254, 4-[4-(5-chloro-2,2-dimethyl-2,3-dihydro-benzofuran-7-yl)-2,6-difluoro-phenylsulfanyl]-butyric acid], the EC50 fell in the range of 200 to 2000 nM.

In the case of `CN(CCCC(=O)O)c1c(F)cc(-c2nccc(OC3CCC3)n2)cc1F` [Example 485, 4-[4-[4-(cyclobutoxy)pyrimidin-2-yl]-2,6-difluoro-N-methyl-anilino]butanoic acid], the EC50 is less than 200 nM.

With `O=C(O)CCCCc1ccc(-c2cccnc2OC2CCC2)cc1F` [Example 245, 5-[4-(2-cyclobutoxy-pyridin-3-yl)-2-fluoro-phenyl]-pentanoic acid], the EC50 was less than 200 nM.

On to `CN(CCCCC(=O)O)c1c(F)cc(-c2cccc(OCC3CC3)n2)cc1F` [Example 101, 5-[4-[6-(cyclopropylmethoxy)-2-pyridyl]-2,6-difluoro-N-methyl-anilino]pentanoic acid], for which the EC50 was less than 200 nM.

On to `O=C(O)CCCSc1ccc(-c2cccc3c2OC(F)(F)O3)cc1F` [Example 154, 4-[4-(2,2-difluoro-benzo[1,3]dioxol-4-yl)-2-fluoro-phenylsulfanyl]-butyric acid], for which the EC50 was less than 200 nM.

For the compound `O=C(O)CCCCc1c(F)cc(-c2cccnc2OCC2CC2)cc1F` [Example 252, 5-[4-(2-cyclopropylmethoxy-pyridin-3-yl)-2,6-difluoro-phenyl]-pentanoic acid], the EC50 is less than 200 nM.

Turning to `CC(CCCC(=O)O)c1c(F)cc(-c2cccc3c2OC2(CCCC2)C3)cc1F` (centres unmarked) [Example 264, 5-(2,6-difluoro-4-spiro[3H-benzofuran-2,1′-cyclopentan]-7-yl-phenyl)-hexanoic acid], the EC50 was in the range of 200 to 2000 nM.

For the compound `O=C(O)CCC1CCc2cc(-c3cncc(OC4CCC4)n3)ccc2S1` (centres unmarked) [Example 507, 3-[6-(6-cyclobutoxy-pyrazin-2-yl)-thiochroman-2-yl]-propionic acid], the EC50 lay in the range of 200 to 2000 nM.

For `CCN(CCCC(=O)O)c1c(F)cc(-c2cccnc2SC2CCC2)cc1F` [Example 224, 4-{[4-(2-cyclobutylsulfanyl-pyridin-3-yl)-2,6-difluoro-phenyl]-ethyl-amino}-butyric acid], the EC50 fell in the range of 200 to 2000 nM.

As for `O=C(O)CCc1ccc2cc(-c3cccnc3Oc3ccccc3)ccc2c1` [Example 144, 3-[6-(2-phenoxy-pyridin-3-yl)-naphthalen-2-yl]-propanoic acid], the EC50 was less than 200 nM.

For `CC(C)CCOc1ccnc(-c2cc(F)c(N3CCC(CC(=O)O)CC3)c(F)c2)n1` [Example 599, (1-{2,6-difluoro-4-[4-(3-methyl-butoxy)-pyrimidin-2-yl]-phenyl}-piperidin-4-yl)-acetic acid], the EC50 lay in the range of 200 to 2000 nM.

Turning to `O=C(O)CC1CCN(c2c(F)cc(-c3cncc(C4CCCC4)n3)cc2F)CC1` [Example 363, 2-[1-[4-(6-cyclopentylpyrazin-2-yl)-2,6-difluoro-phenyl]-4-piperidyl]acetic acid], the EC50 is less than 200 nM.

For the compound `O=C(O)C1CC1CNc1ccc(-c2cccnc2SC2CCCC2)cc1` (centres unmarked) [Example 211, 2-{[4-(2-cyclopentylsulfanyl-pyridin-3-yl)-phenylamino]-methyl}-cyclopropanecarboxylic acid], the EC50 was 200 to 2000 nM.

As for `CC(C)Sc1cccc(-c2cc(F)c(OCCCC(=O)O)c(Cl)c2)n1` [Example 404, 4-[2-chloro-6-fluoro-4-(6-isopropylsulfanyl-pyridin-2-yl)-phenoxy]-butyric acid], the EC50 was less than 200 nM.

As for `CN1c2ccc(-c3cccc(OC4CCCC4)n3)cc2CCC1CCC(=O)O` (centres unmarked) [Example 12, 3-[6-(6-cyclopentyloxy-pyridin-2-yl)-1-methyl-1,2,3,4-tetrahydro-quinolin-2-yl]-propionic acid], the EC50 is 200 to 2000 nM.

On to `O=C(O)CCC1CCc2cc(-c3cccnc3SC3CCCC3)ccc2S1` (centres unmarked) [Example 281, 3-[6-(2-cyclopentylsulfanyl-pyridin-3-yl)-thiochroman-2-yl]-propionic acid], for which the EC50 was less than 200 nM.

Consider `CC(C)Sc1ncccc1-c1cc(F)c(N2CCC(CC(=O)O)C2)c(F)c1` (centres unmarked) [Example 124, 2-[1-[2,6-difluoro-4-(2-isopropylsulfanyl-3-pyridyl)phenyl]pyrrolidin-3-yl]acetic acid], for which the EC50 is less than 200 nM.

As to `O=C(O)COCC(F)(F)c1ccc(-c2cccnc2OC2CCCC2)cc1` [Example 172, {2-[4-(2-cyclopentyloxy-pyridin-3-yl)-phenyl]-2,2-difluoro-ethoxy}-acetic acid], the EC50 was in the range of 2000 to 20000 nM.

Take `O=C(O)CC1CCN(c2c(F)cc(-c3nccc(Oc4ccc(C(F)(F)F)cc4)n3)cc2F)CC1` [Example 610, 2-[1-[2,6-difluoro-4-[4-[4-(trifluoromethyl)phenoxy]pyrimidin-2-yl]phenyl]-4-piperidyl]acetic acid]: the EC50 fell in the range of 200 to 2000 nM.

In the case of `CC(CCCC(=O)O)c1c(F)cc(-c2cccnc2SC2CCC2)cc1F` (centres unmarked) [Example 48, 5-[4-(2-cyclobutylsulfanyl-3-pyridyl)-2,6-difluoro-phenyl]hexanoic acid], the EC50 was less than 200 nM.

In the case of `O=C(O)CC1CCN(c2c(F)cc(-c3nccc(OCC4CC4)n3)cc2F)C1` (centres unmarked) [Example 581, {1-[4-(4-cyclopropylmethoxy-pyrimidin-2-yl)-2,6-difluoro-phenyl]-pyrrolidin-3-yl}-acetic acid], the EC50 was less than 200 nM.

In the case of `CC(C)OCc1cccc(-c2cc(F)c(N3CCC(CC(=O)O)CC3)c(F)c2)c1` [Example 302, 2-[1-[2,6-difluoro-4-[3-(isopropoxymethyl)phenyl]phenyl]-4-piperidyl]acetic acid], the EC50 lay in the range of 200 to 2000 nM.

`Oc1cc(COc2c(F)cc(-c3cccnc3SC3CCC3)cc2F)on1` [Example 61, 5-[[4-(2-cyclobutylsulfanyl-3-pyridyl)-2,6-difluoro-phenoxy]methyl]isoxazol-3-ol]: the EC50 is less than 200 nM.

`O=C(O)CCCOc1c(F)cc(-c2csc(OC3CCC3)n2)cc1F` [Example 394, 4-[4-[2-(cyclobutoxy)thiazol-4-yl]-2,6-difluoro-phenoxy]butanoic acid]: the EC50 was less than 200 nM.

For `O=C(O)CC1CCN(c2c(F)cc(-c3cccc(OC4CCC4)n3)cc2F)CC1` [Example 294, 2-[1-[4-[6-(cyclobutoxy)-2-pyridyl]-2,6-difluoro-phenyl]-4-piperidyl]acetic acid], the concentration giving a half-maximal response (EC50) is less than 200 nM.

As for `CC(C)Oc1cccc(-c2cc(F)c(N3CCC(CC(=O)O)CC3)c(F)c2)n1` [Example 296, 2-[1-[2,6-difluoro-4-(6-isopropoxy-2-pyridyl)phenyl]-4-piperidyl]acetic acid], the EC50 is less than 200 nM.

As to `O=C(O)CC1CCN(c2c(F)cc(-c3cc(F)cc(OC4CCC4)c3)cc2F)CC1` [Example 306, 2-[1-[4-[3-(cyclobutoxy)-5-fluoro-phenyl]-2,6-difluoro-phenyl]-4-piperidyl]acetic acid], the EC50 was in the range of 200 to 2000 nM.

As for `CC(C)Oc1ncccc1-c1cc(F)c(N2CCC(CC(=O)O)CC2)c(F)c1` [Example 119, 2-[1-[2,6-difluoro-4-(2-isopropoxy-3-pyridyl)phenyl]-4-piperidyl]acetic acid], the EC50 was in the range of 200 to 2000 nM.

Regarding `CC(CCCC(=O)O)c1c(F)cc(-c2cccnc2OCC2CC2)cc1F` (centres unmarked) [Example 60, 5-[4-(2-cyclopropylmethoxy-3-pyridyl)-2,6-difluoro-phenyl]hexanoic acid], the EC50 was less than 200 nM.

For `O=C(O)CCCOc1c(F)cc(-n2ncc3ccc(OC4CCC4)cc32)cc1F` [Example 482, 4-[4-[6-(cyclobutoxy)indazol-1-yl]-2,6-difluoro-phenoxy]butanoic acid], the EC50 is less than 200 nM.

On to `O=C(O)CCC1CCc2cc(-c3cccc(OC4CCC4)c3)ccc2O1` (centres unmarked) [Example 555, 3-[6-(3-cyclobutoxy-phenyl)-chroman-2-yl]-propionic acid], for which the EC50 is less than 200 nM.

As for `CC(C)Oc1ccc(F)cc1-c1cc(F)c(N(C)CCCC(=O)O)c(F)c1` [Example 216, 4-[methyl-(3,5,5′-trifluoro-2′-isopropoxy-biphenyl-4-yl)-amino]-butyric acid], the EC50 was less than 200 nM.

In the case of `CCCSc1ncccc1-c1ccc(CCCc2noc(=O)[nH]2)cc1` [Example 63, 3-[3-[4-(2-propylsulfanyl-3-pyridyl)phenyl]propyl]-4H-1,2,4-oxadiazol-5-one], the EC50 lay in the range of 2000 to 20000 nM.

In the case of `O=C(O)C1CC1CCNc1c(F)cc(-c2cccnc2SC2CCCC2)cc1F` (centres unmarked) [Example 128, 2-[2-[4-(2-cyclopentylsulfanyl-3-pyridyl)-2,6-difluoro-anilino]ethyl]cyclopropanecarboxylic acid], the EC50 is less than 200 nM.

Take `O=C(O)CCC1CCc2cc(-c3cccnc3OC3CCOCC3)ccc2S1` (centres unmarked) [Example 284, 3-{6-[2-(tetrahydro-pyran-4-yloxy)-pyridin-3-yl]-thiochroman-2-yl}-propionic acid]: the EC50 fell in the range of 200 to 2000 nM.

For `CCOc1cncc(-c2cc(F)c(N3CCC(CC(=O)O)CC3)c(F)c2)n1` [Example 338, 2-[1-[4-(6-ethoxypyrazin-2-yl)-2,6-difluoro-phenyl]-4-piperidyl]acetic acid], the EC50 was less than 200 nM.

In the case of `CC(CCCC(=O)O)c1c(F)cc(-c2ccc(Cl)c(OC3CCC3)n2)cc1F` (centres unmarked) [Example 415, 5-[4-(5-chloro-6-cyclobutoxy-pyridin-2-yl)-2,6-difluoro-phenyl]-hexanoic acid], the EC50 was less than 200 nM.

In general, EC50 refers to the concentration at which the effect is half-maximal.
